Where two headings read alike, the source gives them in different places.
Legend:
[1] = tested on: TPA-induced epidermal hyperplasia; test: Inhibition of TPA-induced epidermal hyperplasia (epidermal thickness) on back skin of mice; type: in vivo, BALB/c mice; settings: for Emax: read-out: Emax (% inhibition); for Relative potency: hydrocortisone acetate = 1.0; for Synergistic factor: IC50 without auranofin divided by IC50 with auranofin (0.2%); for Synergism with auranofin, epidermal hyperplasia (in words): auranofin (0.2%) co-administered; for Potency for inhibition of TPA-induced epidermal hyperplasia (in words): ranking in text
Experimental: (§1) The mice were housed in stainless steel cages, 6 mice per cage under normal laboratory conditions (room temperature at about 22° C.) at least 7 days before the experiments for acclimatization. Food and water were allowed ad libitum throughout the experiment period. The backs of the mice were shaved with an electric clipper two days before each treatment and only those mice showing no hair regrowth were used (i.e., the mice in the resting phase of the hair growth cycle were selected). During treatment, the mice were held with their tails and put on top of the cage so that they grasped the cage and rested there. The solutions were applied to an area approximately 2 cm×2 cm on the shaved back of the mice by using a “Pipetman” to apply the solution. If auranofin ointment or ointment base was applied, the amount was standardized by using a microspatula which was crimped at one end, the ointment was then put into the ridge and the excess removed by means of another microspatula and applied sparingly twice a day. After a fixed time, the mice were killed routinely by cervical dislocation between 9 a.m. and 11 a.m. to avoid variations due to circadian rhythms, and an area (1 cm×1 cm) was excised from the centre of the treated area by scalpel and scissors. The rest of the tissues were disposed by combustion. The tissues were then fixed, embedded, sectioned and stained.
Epidermal thickness was determined by image analysis. This image analysis system was a minicomputer (Tracor Northern TN8500) attached to a light microscope (Zeiss Axioplan) and a camcorder (Sony DXC-3000P). Sections were taken from each tissue block and 20 measurements were taken at fixed intervals from each section. The average value for the 20 measurements was obtained and entered as one value for each mouse. The mean and SEM for the six mice in each treatment group were calculated.
(§2) The percent inhibition of drug on TPA-induced skin responses (i.e., epidermal hyperplasia, inflammatory cell infiltration and skin-fold thickness) was calculated by using the following formula: [formula]
(§3) This provides estimates of (a) the potency, (b) the efficacy or maximum effect (Emax) and the slope of the log concentration-response curve by using Hill coefficient (γ). The Hill Equation may be expressed as follows: [formula] where IC50 is the drug concentration producing 50% of the maximal response and Emax refers to the maximal effect produced by the drug and is also termed efficacy. Efficacy is the measurement of the intrinsic ability of a drug to initiate a response once it occupies receptor sites. […] The Hill coefficient (γ) measures the slope of the dose-effect curve which can be markedly influenced by the shape of the curve that describes the binding of the drug to the receptor. For many drugs, y lies between 0.6 and 1.5. […] On the other hand, when γ is less than 1, with a shallow hyperbolic concentration effect relationship, the activity occurs over a wide range of drug levels.
(§4) In the present study, concentration-response curves were obtained for a series of corticosteroids. In these experiments, curve fitting was accomplished using a computer programme called “The Scientist” (MicroMath Scientific Software, Salt Lake City, Utah, USA.) in which the parameters, Emax, IC50 and Hill coefficient (γ) for each steroids were estimated by using non-linear regression and least square fits.
Mice were divided into treatment groups. TPA and corticosteroids were premixed to the concentrations required and applied to the backs of mice immediately. For those steroids not very soluble in acetone (i.e., betamethasone, dexamethasone, hydrocortisone and hydrocortisone acetate), the drugs were dissolved in 100 μL dimethylformamide before further dilution with acetone. The efficacy of corticosteroids in inhibiting epidermal hyperplasia, inflammatory cell infiltration and skin-fold thickness was assessed as described previously. Concentration-response curves were determined after computer-fitting of data.

[2] = tested on: TPA-induced inflammatory cell infiltration into the dermis; test: Inhibition of TPA-induced inflammatory cell infiltration into the dermis of mice; type: in vivo, BALB/c mice; settings: for Emax: read-out: Emax (% inhibition); for Relative potency: hydrocortisone acetate = 1.0; for Synergistic factor: IC50 without auranofin divided by IC50 with auranofin (0.2%); for Potency for inhibition of TPA-induced inflammatory cell infiltration (in words): ranking in text
Experimental: as §1
Infiltration of inflammatory cells was determined by the same image analysis system using the section taken from the block of mouse skin embedded in paraffin wax or Spurr's resin and stained with haematoxylin and eosin or toluidine blue respectively. For each section, 10 fields, unless otherwise stated, were chosen randomly and the cell density per mm^2 of field determined. The average value for the 10 fields was obtained and entered as one value for each mouse. The mean and SEM for the six mice in each treatment group were calculated.
The measurement of the inflammatory cell infiltration included the background values which included other materials in the dermis stained in the same way.
as §2, §3, §4
Mice were divided into treatment groups. TPA and corticosteroids were premixed to the concentrations required and applied to the backs of mice immediately.

[3] = Mus musculus, from Hill equation, concentration that produced 50% of Emax, read-out: IC50 for inhibition of epidermal thickening (M × 10^−4)
[4] = Mus musculus, read from concentration-response curve, concentration that inhibited 50% of the TPA effect, read-out: IC50 for inhibition of epidermal thickening (M × 10^−4)
[5] = Mus musculus, topical, Hill equation fit, means ± SD, steroid premixed with TPA, topical, read-out: IC50 (M × 10^−4)
[6] = Mus musculus, Hill equation fit, means ± SD, steroid premixed with TPA, topical
[7] = Mus musculus, from Hill equation, concentration that produced 50% of Emax, read-out: IC50 for inhibition of inflammatory cell infiltration in the dermis (M × 10^−4)
[8] = Mus musculus, read from concentration-response curve, concentration that inhibited 50% of the TPA effect, read-out: IC50 for inhibition of inflammatory cell infiltration in the dermis (M × 10^−4)
[9] = Mus musculus, with auranofin (0.2%), from computer fitted graph, means ± SD, read-out: Apparent IC50 (M × 10^−4) with auranofin
[10] = Mus musculus, without auranofin, from computer fitted graph, means ± SD, read-out: Apparent IC50 (M × 10^−4) without auranofin
[11] = Mus musculus, topical, read-out: IC50 (M × 10^−4), Hill equation fit, means ± SD, steroid premixed with TPA, topical
[12] = Hill equation fit, means ± SD, steroid premixed with TPA, topical
[13] = Hill equation fit, means ± SD, steroid premixed with TPA, topical, read-out: IC50 (M × 10^−4)
[14] = from Hill equation, concentration that produced 50% of Emax, read-out: IC50 for inhibition of epidermal thickening (M × 10^−4)
[15] = read from concentration-response curve, concentration that inhibited 50% of the TPA effect, read-out: IC50 for inhibition of epidermal thickening (M × 10^−4)
[16] = with auranofin (0.2%), from computer fitted graph, means ± SD, read-out: Apparent IC50 (M × 10^−4) with auranofin
[17] = without auranofin, from computer fitted graph, means ± SD, read-out: Apparent IC50 (M × 10^−4) without auranofin
[18] = from Hill equation, concentration that produced 50% of Emax, read-out: IC50 for inhibition of inflammatory cell infiltration in the dermis (M × 10^−4)
[19] = read from concentration-response curve, concentration that inhibited 50% of the TPA effect, read-out: IC50 for inhibition of inflammatory cell infiltration in the dermis (M × 10^−4)

| SMILES | IC50 [1, 3] [µM] | IC50 [1, 4] [µM] | IC50 [1, 5] [µM] | Emax [1, 6] [%] | Relative potency ([1]; from Hill-equation IC50) | Relative potency ([1]; from IC50 read from curve) | IC50 [2, 7] [µM] | IC50 [2, 8] [µM] | IC50 [2, 5] [µM] | Emax [2, 6] [%] | Relative potency ([2]; from Hill-equation IC50) | Relative potency ([2]; from IC50 read from curve) | Potency for inhibition of TPA-induced epidermal hyperplasia (in words) [1] | Potency for inhibition of TPA-induced inflammatory cell infiltration (in words) [2] | further results |
| --- | --- | --- | --- | --- | --- | --- | --- | --- | --- | --- | --- | --- | --- | --- | --- |
| CC1(C)O[C@@H]2C[C@H]3[C@@H]4CCC5=CC(=O)C=C[C@]5(C)[C@@]4(F)[C@@H](O)C[C@]3(C)[C@]2(C(=O)CO)O1 [Triamcinolone acetonide] | 113 | 140 | 113 ± 35 | 89.8 ± 6.4 | 32.45 | 50.0 | 39 | 70 | 39 ± 3 | 77.2 ± 1.26 | 198.28 | 157.14 |  |  |  |
| CC1(C)O[C@@H]2C[C@H]3[C@@H]4C[C@H](F)C5=CC(=O)C=C[C@]5(C)[C@@]4(F)[C@@H](O)C[C@]3(C)[C@]2(C(=O)CO)O1 [Fluocinolone acetonide, fluocinolone acetonide] | 39 | 21 | 39 ± 14 | 89.6 ± 6.93 | 94.03 | 333.33 | 16 | 25 | 16 ± 2 | 79.6 ± 2.41 |  | 440 | strong to very strong potencies | most potent agent | Synergistic factor [1]: 13.13; IC50 [1, 9]: 1.6 ± 0.2 µM; IC50 [1, 10]: 21 ± 14 µM; Synergism with auranofin, epidermal hyperplasia (in words) [1]: massive synergism; Percent increase in the apparent potency of the steroid ([1]; in presence of auranofin (0.2%)): 1,300%; Synergistic factor [2]: 2.27; IC50 [2, 9]: 11 ± 1.3 µM; IC50 [2, 10]: 25 ± 0.2 µM; Potency for inhibition of TPA-induced inflammatory cell infiltration (in words) ([2]; listed as fluocinolone acetonide): strong to very strong anti-inflammatory effect |
| CCC(=O)OCC(=O)[C@@]1(OC(=O)CC)[C@H](C)C[C@H]2[C@H]3[C@H]([C@@H](O)C[C@@]21C)[C@@]1(C)C=CC(=O)C=C1C[C@H]3Cl [Alclometasone dipropionate] |  |  |  |  | 41.20 | 70.0 |  |  |  |  | 241.66 | 183.33 | medium to strong potencies | medium to strong potencies | IC50 ([1]; Mus musculus, read-out: IC50 for inhibition of epidermal thickening (M × 10^−4), from Hill equation, concentration that produced 50% of Emax): 89 µM; IC50 ([1]; Mus musculus, read-out: IC50 for inhibition of epidermal thickening (M × 10^−4), read from concentration-response curve, concentration that inhibited 50% of the TPA effect): 100 µM; Emax ([1]; Mus musculus, topical): 96.6 ± 7.9%; IC50 [1, 11]: 89 ± 30 µM; IC50 ([2]; Mus musculus, read-out: IC50 for inhibition of inflammatory cell infiltration in the dermis (M × 10^−4), from Hill equation, concentration that produced 50% of Emax): 32 µM; IC50 ([2]; Mus musculus, read-out: IC50 for inhibition of inflammatory cell infiltration in the dermis (M × 10^−4), read from concentration-response curve, concentration that inhibited 50% of the TPA effect): 60 µM; Emax ([2]; Mus musculus, topical): 82.1 ± 5.65%; IC50 [2, 11]: 32 ± 9 µM |
| C[C@@H]1C[C@H]2[C@@H]3CCC4=CC(=O)C=C[C@]4(C)[C@@]3(Cl)[C@@H](O)C[C@]2(C)[C@@]1(OC(=O)c1ccco1)C(=O)CCl [Mometasone furoate, mometasone furoate] |  |  |  |  | 159.43 | 175.0 |  |  |  |  | 386.65 | 366.67 | strong to very strong potencies | strong to very strong anti-inflammatory effect | Emax (% inhibition) [1, 12]: 83.31 ± 3.04 % inhibition; IC50 [1, 13]: 23 ± 4 µM; Synergistic factor [1]: 1.29; Synergism with auranofin, epidermal hyperplasia (in words) [1]: no synergism or even additive effect; IC50 [1, 14]: 23 µM; IC50 [1, 15]: 40 µM; IC50 [1, 16]: 31 ± 5 µM; IC50 [1, 17]: 40 ± 4 µM; Emax (% inhibition) [2, 12]: 89.98 ± 4.88^ % inhibition; IC50 [2, 13]: 20 ± 5 µM; Synergistic factor [2]: 37.50; Synergism with auranofin, inflammatory cell infiltration (in words) ([2]; auranofin (0.2%), FIG. 2): massive synergism; Concentration that, in the absence of auranofin, produced an equal effect to the combination ([2]; equal to 5×10^−4 M with auranofin (0.2%), FIG. 2): 1 mM; IC50 [2, 18]: 20 µM; Increase in apparent IC50 ([2]; in presence of auranofin (0.2%), Table 10): about 3,800%; IC50 [2, 19]: 30 µM; IC50 [2, 16]: 0.8 ± 0.1 µM; IC50 [2, 17]: 30 ± 5 µM |
| C[C@@H]1C[C@H]2[C@@H]3CCC4=CC(=O)C=C[C@]4(C)[C@@]3(F)[C@@H](O)C[C@]2(C)[C@@]1(O)C(=O)CO [Dexamethasone] | 126 | 200 | 126 ± 44 | 90.7 ± 5.72 | 29.10 | 35.0 | 444 | 410 | 444 ± 102 | 99 | 17.42 | 26.83 |  |  |  |
| C[C@@H]1C[C@H]2[C@@H]3C[C@H](F)C4=CC(=O)C=C[C@]4(C)[C@H]3[C@@H](O)C[C@]2(C)[C@H]1C(=O)COC(=O)C(C)(C)C [Fluocortolone 21-pivalate] |  |  |  |  | 91.68 | 116.67 |  |  |  |  | 70.30 | 100.0 | medium to strong potencies | medium to strong potencies | Emax (% inhibition) [1, 12]: 85.18 ± 9.51 % inhibition; IC50 [1, 13]: 40 ± 15 µM; IC50 [1, 14]: 40 µM; IC50 [1, 15]: 60 µM; Emax (% inhibition) [2, 12]: 97.91 ± 12.16 % inhibition; IC50 [2, 13]: 110 ± 40 µM; IC50 [2, 18]: 110 µM; IC50 [2, 19]: 110 µM |
| CC[PH](CC)(CC)[Au][S][C@@H]1O[C@H](COC(C)=O)[C@@H](OC(C)=O)[C@H](OC(C)=O)[C@H]1OC(C)=O [Auranofin, (1-thio-p-D-glucopyranose 2,3,4,6-tetraacetato-S)-(triethylphosphine)-Au(I)] |  |  |  |  |  |  |  |  |  |  |  |  |  |  | Inhibition of TPA-induced epidermal hyperplasia ([1]; auranofin (0.2%) alone, FIG. 1): about 10% |
